Measured values from ChEMBL document CHEMBL1201862, “PubChem BioAssay data set” (2004).
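Tested at 5 concentrations; 48 h exposure; 96-well plates; endpoints linearly interpolated, else capped at highest concentration. GI50 marks 50% less growth.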 The source made the active and inactive calls. Rule as the data show it: active = GI50 up to about 1.1 µM and inactive = higher.

Tests used:
Experiment in all cases: NCI anticancer screen, dose series, 48 h
[1] = system: NCI-H23
[2] = system: T47D
[3] = system: ACHN
[4] = system: SNB-19
[5] = system: HCT-116
[6] = system: CAKI-1
[7] = system: MDA-MB-231
[8] = system: UACC-62
[9] = system: LOX IMVI
[10] = system: HOP-62
[11] = system: M14
[12] = system: EKVX
[13] = system: NCI/ADR-RES
[14] = system: NCI-H226
[15] = system: NCI-H522
[16] = system: KM12
[17] = system: OVCAR-5
[18] = system: BT-549
[19] = system: HOP-92

| SMILES | GI50 [1] | GI50 [2] | GI50 [3] | GI50 [4] | GI50 [5] | GI50 [6] | GI50 [7] | GI50 [8] | GI50 [9] | GI50 [10] | GI50 [11] | GI50 [12] | GI50 [13] | GI50 [14] | GI50 [15] | GI50 [16] | GI50 [17] | GI50 [18] | GI50 [19] |
| --- | --- | --- | --- | --- | --- | --- | --- | --- | --- | --- | --- | --- | --- | --- | --- | --- | --- | --- | --- |
| NCCN1CC2CCC(CC2)C1 | > 10 µM (inactive) | > 10 µM (inactive) | > 10 µM (inactive) | > 10 µM (inactive) | > 10 µM (inactive) | > 10 µM (inactive) | > 10 µM (inactive) | > 10 µM (inactive) | > 10 µM (inactive) | > 10 µM (inactive) | > 10 µM (inactive) | > 10 µM (inactive) | > 10 µM (inactive) | > 10 µM (inactive) | > 10 µM (inactive) | > 10 µM (inactive) | – | – | – |
| O=C(NCCN1CCOCC1)c1ccc(I)cc1 | > 100 µM (inactive) | – | > 100 µM (inactive) | > 100 µM (inactive) | – | > 100 µM (inactive) | – | > 100 µM (inactive) | > 100 µM (inactive) | – | > 100 µM (inactive) | > 100 µM (inactive) | > 100 µM (inactive) | > 100 µM (inactive) | – | – | > 100 µM (inactive) | > 100 µM (inactive) | – |
| FC(F)(F)c1cccc(-c2nc3ccccc3c3c2[C@@]2(N4CCCC4)CCCC[C@@H]32)c1 | 32.4 µM (inactive) | 76 µM (inactive) | – | 50.9 µM (inactive) | 35.6 µM (inactive) | 50.9 µM (inactive) | 18.5 µM (inactive) | 23.5 µM (inactive) | 18.1 µM (inactive) | 32.3 µM (inactive) | 66.2 µM (inactive) | 28.7 µM (inactive) | > 100 µM (inactive) | 51.2 µM (inactive) | 13.3 µM (inactive) | 35.6 µM (inactive) | 34.4 µM (inactive) | – | 13.2 µM (inactive) |
| CCOC(=O)CC(=O)Nc1c(C(=O)OCC)sc2nc(SC)nc(Nc3ccc(OC)c(OC)c3)c12 | 19.1 µM (inactive) | – | 19.8 µM (inactive) | – | 39.4 µM (inactive) | 64 µM (inactive) | 18.5 µM (inactive) | 24.6 µM (inactive) | 39.4 µM (inactive) | – | > 100 µM (inactive) | > 100 µM (inactive) | 8.77 µM (inactive) | 75.2 µM (inactive) | 13.6 µM (inactive) | 80.5 µM (inactive) | 52.6 µM (inactive) | 27.5 µM (inactive) | 9.25 µM (inactive) |
| COc1cccc(CC2C(=O)N/C(=N\C(C)=O)N2C)c1OC(C)=O (configuration not stated) | > 100 µM (inactive) | – | > 100 µM (inactive) | > 100 µM (inactive) | > 100 µM (inactive) | > 100 µM (inactive) | > 100 µM (inactive) | > 100 µM (inactive) | > 100 µM (inactive) | > 100 µM (inactive) | > 100 µM (inactive) | 44 µM (inactive) | > 100 µM (inactive) | > 100 µM (inactive) | > 100 µM (inactive) | > 100 µM (inactive) | > 100 µM (inactive) | > 100 µM (inactive) | > 100 µM (inactive) |
| Cc1c(CN)c(C)c(CN)c(C)c1CN | 27 µM (inactive) | – | > 100 µM (inactive) | > 100 µM (inactive) | > 100 µM (inactive) | > 100 µM (inactive) | > 100 µM (inactive) | – | > 100 µM (inactive) | 81.5 µM (inactive) | > 100 µM (inactive) | > 100 µM (inactive) | > 100 µM (inactive) | > 100 µM (inactive) | 86.7 µM (inactive) | > 100 µM (inactive) | > 100 µM (inactive) | > 100 µM (inactive) | > 100 µM (inactive) |
| CCOC(=O)/C(=C/NC(=S)Nc1c(CC)cccc1C(C)(C)C)C(=O)c1ccccc1 | > 100 µM (inactive) | > 100 µM (inactive) | > 100 µM (inactive) | – | > 100 µM (inactive) | > 100 µM (inactive) | > 100 µM (inactive) | > 100 µM (inactive) | > 100 µM (inactive) | > 100 µM (inactive) | > 100 µM (inactive) | > 100 µM (inactive) | > 100 µM (inactive) | > 100 µM (inactive) | > 100 µM (inactive) | > 100 µM (inactive) | > 100 µM (inactive) | – | – |
| CCCOc1ccc(-c2nc(-c3ccc(/N=C/c4ccc(N(CCOS(C)(=O)=O)CCOS(C)(=O)=O)cc4C)cc3)cs2)cc1 | 10.1 µM (inactive) | 26.9 µM (inactive) | 1.46 µM (inactive) | 41.7 µM (inactive) | 29.4 µM (inactive) | 1.3 µM (inactive) | 34 µM (inactive) | 5.31 µM (inactive) | 14.9 µM (inactive) | 8 µM (inactive) | 16.8 µM (inactive) | 17.6 µM (inactive) | 23.6 µM (inactive) | 22.9 µM (inactive) | 2.16 µM (inactive) | 13.6 µM (inactive) | 31.9 µM (inactive) | – | 24.4 µM (inactive) |
| CCOC(=O)/C(=C\c1c(C)[nH]c2ccccc12)P(=O)(OCC)OCC | > 100 µM (inactive) | > 100 µM (inactive) | > 100 µM (inactive) | > 100 µM (inactive) | > 100 µM (inactive) | > 100 µM (inactive) | > 100 µM (inactive) | > 100 µM (inactive) | > 100 µM (inactive) | > 100 µM (inactive) | > 100 µM (inactive) | > 100 µM (inactive) | > 100 µM (inactive) | > 100 µM (inactive) | > 100 µM (inactive) | > 100 µM (inactive) | > 100 µM (inactive) | – | – |
| CCCCCCCCCN1CCC(=O)C(C(=O)OC)C1 (configuration not stated) | 2.96 µM (inactive) | 10.4 µM (inactive) | 8.93 µM (inactive) | – | 13.9 µM (inactive) | 15.6 µM (inactive) | – | 12.2 µM (inactive) | 12.5 µM (inactive) | 16.9 µM (inactive) | 15.4 µM (inactive) | 15.5 µM (inactive) | 13.6 µM (inactive) | 12.9 µM (inactive) | 8.73 µM (inactive) | 3.08 µM (inactive) | 15.3 µM (inactive) | – | 17.7 µM (inactive) |
| CCOC(=O)N1c2c(ccn2C)-c2ccn(C)c2N1C(=O)OCC | – | – | 15.8 µM (inactive) | > 10 µM (inactive) | 14.8 µM (inactive) | 18.3 µM (inactive) | – | 16.7 µM (inactive) | 12.9 µM (inactive) | > 100 µM (inactive) | 15.1 µM (inactive) | – | – | 19.7 µM (inactive) | 11.3 µM (inactive) | 19.9 µM (inactive) | 17.4 µM (inactive) | – | 20.6 µM (inactive) |
| COC(=O)c1ccccc1C1=C([N+](=O)[O-])C(c2ccccc2)C(C#N)=C(N)O1 (configuration not stated) | 23.4 µM (inactive) | 37.7 µM (inactive) | 54.7 µM (inactive) | > 100 µM (inactive) | > 100 µM (inactive) | – | > 100 µM (inactive) | 30.7 µM (inactive) | > 100 µM (inactive) | > 100 µM (inactive) | > 100 µM (inactive) | 10.5 µM (inactive) | > 100 µM (inactive) | > 100 µM (inactive) | 15 µM (inactive) | 56 µM (inactive) | > 100 µM (inactive) | – | 50.1 µM (inactive) |
| COC(=O)C(=O)C(C(=O)C(=O)Nc1ccc(Cl)cc1Cl)c1nc2ccc(Cl)cc2nc1O (configuration not stated) | > 100 µM (inactive) | – | > 100 µM (inactive) | > 100 µM (inactive) | > 100 µM (inactive) | > 100 µM (inactive) | > 100 µM (inactive) | > 100 µM (inactive) | > 100 µM (inactive) | > 100 µM (inactive) | > 100 µM (inactive) | 17.1 µM (inactive) | > 100 µM (inactive) | 49 µM (inactive) | > 100 µM (inactive) | > 100 µM (inactive) | > 100 µM (inactive) | > 100 µM (inactive) | 58.5 µM (inactive) |
| O=C1CCc2cc3c(cc21)CC1(Cc2ccccc2C1)C3 | 26.9 µM (inactive) | 20.2 µM (inactive) | 19.8 µM (inactive) | 27.2 µM (inactive) | 4.08 µM (inactive) | 0.703 µM (active) | 12 µM (inactive) | 21.1 µM (inactive) | 8.02 µM (inactive) | 9.73 µM (inactive) | 14.9 µM (inactive) | > 27.3 µM (inactive) | 7.31 µM (inactive) | 12.9 µM (inactive) | 9.14 µM (inactive) | > 22.4 µM (inactive) | 16.3 µM (inactive) | – | 6.32 µM (inactive) |
| Cc1cn([C@@H]2C[C@H](CO)[C@@H]2O)c(=O)[nH]c1=O | > 100 µM (inactive) | – | > 100 µM (inactive) | – | > 100 µM (inactive) | > 100 µM (inactive) | > 100 µM (inactive) | – | > 100 µM (inactive) | > 100 µM (inactive) | – | > 100 µM (inactive) | > 100 µM (inactive) | > 100 µM (inactive) | > 100 µM (inactive) | > 100 µM (inactive) | > 100 µM (inactive) | > 100 µM (inactive) | > 100 µM (inactive) |
| CC1(C)[C@@H](Cn2ccc(=O)[nH]c2=O)CC[C@@]1(C)CO | – | > 100 µM (inactive) | > 100 µM (inactive) | > 100 µM (inactive) | > 100 µM (inactive) | > 100 µM (inactive) | > 100 µM (inactive) | > 100 µM (inactive) | > 100 µM (inactive) | > 100 µM (inactive) | > 100 µM (inactive) | > 100 µM (inactive) | > 100 µM (inactive) | > 100 µM (inactive) | – | > 100 µM (inactive) | > 100 µM (inactive) | – | > 100 µM (inactive) |
| Oc1cc(-c2ccccc2)nc2ncccc12 | 0.203 µM (active) | > 100 µM (inactive) | 0.446 µM (active) | 0.222 µM (active) | 0.0719 µM (active) | 0.0792 µM (active) | 0.418 µM (active) | 0.0396 µM (active) | 0.0552 µM (active) | 1.15 µM (inactive) | 0.0853 µM (active) | > 100 µM (inactive) | 0.0655 µM (active) | 0.502 µM (active) | 0.0525 µM (active) | 0.0296 µM (active) | – | – | 0.127 µM (active) |
